Experimental data from a compilation of properties of binary mixtures (doi:10.1021/acs.jced.2c00024).

Experiment: xn = mol fraction of the nth substance listed
Conditions: 101 kPa

COCCn1cc[n+](C)c1.N#C[S-] + O=C1CCCO1
Conditions	electrical conductivity [S/m]	viscosity [mPa·s]
288.15 K, x1 = 0.1027	1.29	3.05
288.15 K, x1 = 0.1999	1.4	4.19
288.15 K, x1 = 0.3001	1.28	5.5
288.15 K, x1 = 0.4001	1.08	7.8
288.15 K, x1 = 0.5006	0.874	13
288.15 K, x1 = 0.6015	0.686	21.8
288.15 K, x1 = 0.8038	0.399	51
288.15 K, x1 = 0.9012	0.301	68
293.15 K, x1 = 0.1027	1.41	2.73
293.15 K, x1 = 0.1999	1.55	3.64
293.15 K, x1 = 0.3001	1.44	4.79
293.15 K, x1 = 0.4001	1.24	6.7
293.15 K, x1 = 0.5006	1.02	10.8
293.15 K, x1 = 0.6015	0.819	17.3
293.15 K, x1 = 0.7036	0.645	26.8
293.15 K, x1 = 0.9012	0.395	53
293.15 K, x1 = 1	0.315	67
298.15 K, x1 = 0.1027	1.54	2.44
298.15 K, x1 = 0.1999	1.72	3.18
298.15 K, x1 = 0.4001	1.42	5.8
298.15 K, x1 = 0.5006	1.19	9
298.15 K, x1 = 0.6015	0.975	13.9
298.15 K, x1 = 0.7036	0.788	21.1
298.15 K, x1 = 0.8038	0.636	30.3
298.15 K, x1 = 0.9012	0.516	42
303.15 K, x1 = 0.1027	1.68	2.21
303.15 K, x1 = 0.1999	1.89	2.82
303.15 K, x1 = 0.4001	1.61	5.1
303.15 K, x1 = 0.5006	1.38	7.7
303.15 K, x1 = 0.6015	1.16	11.5
303.15 K, x1 = 0.7036	0.958	17.1
303.15 K, x1 = 0.8038	0.785	24.4
303.15 K, x1 = 0.9012	0.642	33.3
303.15 K, x1 = 1	0.52	42.1
308.15 K, x1 = 0.1027	1.82	2
308.15 K, x1 = 0.1999	2.08	2.51
308.15 K, x1 = 0.3001	2.02	3.27
308.15 K, x1 = 0.4001	1.82	4.49
308.15 K, x1 = 0.5006	1.59	6.5
308.15 K, x1 = 0.7036	1.14	14.1
308.15 K, x1 = 0.8038	0.951	19.9
308.15 K, x1 = 1	0.653	34.4
313.15 K, x1 = 0.1999	2.27	2.25
313.15 K, x1 = 0.3001	2.21	2.89
313.15 K, x1 = 0.4001	2.02	3.94
313.15 K, x1 = 0.6015	1.56	8.2
313.15 K, x1 = 0.8038	1.12	16.5
313.15 K, x1 = 0.9012	0.95	22.5
313.15 K, x1 = 1	0.795	28.6
318.15 K, x1 = 0.1027	2.16	1.66
318.15 K, x1 = 0.1999	2.47	2.03
318.15 K, x1 = 0.5006	2.03	4.92
318.15 K, x1 = 0.6015	1.78	7
318.15 K, x1 = 0.7036	1.54	10.2
318.15 K, x1 = 0.8038	1.32	14
318.15 K, x1 = 0.9012	1.13	18.9
318.15 K, x1 = 1	0.954	23.7
323.15 K, x1 = 0.1027	2.35	1.53
323.15 K, x1 = 0.3001	2.66	2.34
323.15 K, x1 = 0.6015	2	6.1
323.15 K, x1 = 0.8038	1.51	11.9
323.15 K, x1 = 0.9012	1.31	16
323.15 K, x1 = 1	1.12	20
328.15 K, x1 = 0.1027	2.55	1.41
328.15 K, x1 = 0.1999	2.92	1.69
328.15 K, x1 = 0.3001	2.9	2.1
328.15 K, x1 = 0.4001	2.74	2.79
328.15 K, x1 = 0.5006	2.5	3.75
328.15 K, x1 = 0.6015	2.25	5.4
328.15 K, x1 = 0.7036	1.99	7.6
328.15 K, x1 = 0.8038	1.74	10.4
328.15 K, x1 = 1	1.32	17.2
333.15 K, x1 = 0.1999	3.15	1.56
333.15 K, x1 = 0.3001	3.16	1.9
333.15 K, x1 = 0.4001	2.98	2.5
333.15 K, x1 = 0.5006	2.75	3.35
333.15 K, x1 = 0.6015	2.48	4.81
333.15 K, x1 = 0.7036	2.21	6.8
333.15 K, x1 = 0.8038	1.95	9.2
333.15 K, x1 = 0.9012	1.72	12.1
333.15 K, x1 = 1	1.51	14.8
338.15 K, x1 = 0.1027	2.98	1.21
338.15 K, x1 = 0.1999	3.41	1.43
338.15 K, x1 = 0.3001	3.42	1.73
338.15 K, x1 = 0.4001	3.26	2.23
338.15 K, x1 = 0.5006	3.02	2.95
338.15 K, x1 = 0.8038	2.19	8.1
338.15 K, x1 = 0.9012	1.95	10.6
338.15 K, x1 = 1	1.72	12.9
343.15 K, x1 = 0.1027	3.21	1.13
343.15 K, x1 = 0.1999	3.66	1.33
343.15 K, x1 = 0.3001	3.71	1.62
343.15 K, x1 = 0.4001	3.54	2.06
343.15 K, x1 = 0.6015	3	3.86
343.15 K, x1 = 0.8038	2.42	7.3
343.15 K, x1 = 0.9012	2.15	9.5
343.15 K, x1 = 1	1.92	11.3

O=C1CCCO1 + [S-]C#N.COCCN1C=[N+](C=C1)C
x2 = 0
Conditions	viscosity [mPa·s]
288.15 K	2.02
293.15 K	1.86
298.15 K	1.72
303.15 K	1.59
308.15 K	1.48
318.15 K	1.29
323.15 K	1.21
328.15 K	1.14
333.15 K	1.08
338.15 K	1.02
343.15 K	0.97
